# Marks after values point to notes of the source that are not given here.
# Columns and labels:
# Format in all cases: in vivo
# [1] = test system: MPTP-treated squirrel monkeys; assay: post-mortem striatal dopamine and metabolite levels by HPLC, squirrel monkeys; settings: MPTP/GM1, average (S.D.)
# Method: (§1) Post-mortem neurochemical examinations of striatal tissue were carried out for the determination of dopamine (DA) and relevant metabolites, e.g. homovanillic acid (HVA), and […] (DOPAC). DA and relevant metabolites striatal levels were quantified by electrochemical […] high pressure liquid chromatography (HPLC) (Schneider J. S., Brain Res., 24, 534, 1990).
# [2] = test system: MPTP-treated cynomolgus monkeys; assay: post-mortem striatal dopamine and metabolite levels by HPLC, cynomolgus monkeys; settings: MPTP/GM1, average (S.D.)
# Method: as §1
# [3] = test system: MPTP-treated cynomolgus monkeys; assay: object grasping test in MPTP-treated cynomolgus monkeys; settings: GM1 15 mg/kg/day i.m., investigation end
# Method: The behaviour and neurologic functions of cynomolgus monkeys were also tested. Said monkeys were also trained to grasp an object, which has proven to be indicative of the motor and cognitive functions of MPTP-treated monkeys (Taylor J. R. et al., Brain, 113, 617, 1990).
# The grasping test was carried out according to Diamond A.: “The development and neural bases of higher cognitive functions”, Annals of the New York Academy of Sciences, vol. 608, A. Diamond Ed. (The New York Academy of Sciences, New York, 637-676, 1990).
# Briefly, monkeys were trained to stretch their arm out of their cage to grasp food (raisins or apple) from a Plexiglas box (15 cm×15 cm×5 cm), open on one side and fastened to a platform allowing side movement and rotation.
# The box open side could happen to be in front of, on the left or on the right side of the monkey. Each experiment consisted of 30 tests. The following events were recorded: successful arm stretchings (food grasped at the first attempt), correct stretchings (food grasped after various attempts), and “barrier” stretchings (i.e. towards the closed side of the box rather than-around the box until reaching the open side of same). Should no food be grasped within 5 minutes, the test was judged to be without response.
# FIG. 2 illustrates the effects produced by MPTP and GM1 on cynomolgus monkeys in the “object grasping” test. […]
# [4] = test system: MPTP-treated squirrel monkeys; assay: food grasping test in MPTP-treated squirrel monkeys; settings: GM1 30 mg/kg/day i.m., investigation end
# Method: Tests on squirrel monkeys, which concerned simple motor functions (e.g. capability of grasping food placed in deep containers), were intended to determine the response time and evaluate limb functional use. In particular, monkeys were trained to grasp raisins from a Plexiglas platform accommodating 9.5 mm dia. wells. The time taken to start grasping and the number of raisins grasped in a 6-minute time limit were recorded. All the aforesaid tests were carried out before the first meal of the day.
# Normal monkeys started response on sighting the food container.
# Normal squirrel monkeys succeeded in grasping 100% food. Soon after MPTP administration, all monkeys were endangered and grasped approx. 15% food. Within the third week of treatment, the monkeys treated with GM1—compared with those treated with saline solution—grasped a higher amount of food. At the investigation end, the former grasped 100% food whereas the latter grasped only 25% food (*p<0.05).
substance,measurement,setting,value
monosialoganglioside [GM1],DA striatal level,[1]; Dorsolateral caudatum,8.6(1.2)* ng/mg protein
same,DOPAC striatal level,[1]; Dorsolateral caudatum,3.3(0.9)* ng/mg protein
same,HVA striatal level,[1]; Dorsolateral caudatum,46.2(6.5)* ng/mg protein
same,DA striatal level,[1]; Dorsolateral putamen,4.2(0.8)* ng/mg protein
same,DOPAC striatal level,[1]; Dorsolateral putamen,1.3(0.2)* ng/mg protein
same,HVA striatal level,[1]; Dorsolateral putamen,45.9(6.9)* ng/mg protein
same,DA striatal level,[1]; Ventromedial caudatum,37.4(4.2)* ng/mg protein
same,DOPAC striatal level,[1]; Ventromedial caudatum,12.7(3.6)* ng/mg protein
same,HVA striatal level,[1]; Ventromedial caudatum,56.6(11.9)* ng/mg protein
same,DA striatal level,[1]; Ventromedial putamen,21.9(6.1)* ng/mg protein
same,DOPAC striatal level,[1]; Ventromedial putamen,5.9(1.6)* ng/mg protein
same,HVA striatal level,[1]; Ventromedial putamen,87.5(17.3)* ng/mg protein
same,DA striatal level,[2]; Dorsolateral caudatum,4.4(0.6)* ng/mg protein
same,DOPAC striatal level,[2]; Dorsolateral caudatum,2.7(0.3)* ng/mg protein
same,HVA striatal level,[2]; Dorsolateral caudatum,55.9(12.0)* ng/mg protein
same,DA striatal level,[2]; Dorsolateral putamen,3.7(0.9) ng/mg protein
same,DOPAC striatal level,[2]; Dorsolateral putamen,2.1(0.8)* ng/mg protein
same,HVA striatal level,[2]; Dorsolateral putamen,51.9(9.4)* ng/mg protein
same,DA striatal level,[2]; Ventromedial caudatum,12.9(2.8)* ng/mg protein
same,DOPAC striatal level,[2]; Ventromedial caudatum,6.6(0.7)* ng/mg protein
same,HVA striatal level,[2]; Ventromedial caudatum,60.9(6.9)* ng/mg protein
same,DA striatal level,[2]; Ventromedial putamen,11.2(4.1)* ng/mg protein
same,DOPAC striatal level,[2]; Ventromedial putamen,7.1(3.2)* ng/mg protein
same,HVA striatal level,[2]; Ventromedial putamen,100.3(11.9)* ng/mg protein
same,object grasping test performance,[3],fulfilled the task almost perfectly
same,response start time in food grasping test,[4]; p<0.002 vs saline solution,started response almost immediately
same,food per cent amount grasped during the test,"[4]; saline solution 25%, normal 100%",100%

# — US6620792B1, “Pharmaceutical compositions containing monosialoganglioside GM1 or derivative thereof suitable for the treatment of parkinson's disease” (Fidia S.p.A., priority 1992, dated 2003)
